In the supplement of paper PMC10307832:

How the values were obtained:
Experiment in all cases: relative viability (nuclei count vs DMSO), 5 days (fraction); higher = more cells survive
AZD6482 + Tozasertib = compound: Cc1cc([C@@H](C)Nc2ccccc2C(=O)O)c2nc(N3CCOCC3)cc(=O)n2c1 [AZD6482] + Cc1cc(Nc2cc(N3CCN(C)CC3)nc(Sc3ccc(NC(=O)C4CC4)cc3)n2)n[nH]1 [Tozasertib] (partner 0.1 µM)
Summary of the method: (§1)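 Relative viability divides the nuclei count in treated wells by that in vehicle wells. Lung cancer cell lines were seeded in 1536-well plates, dosed by pin tool the next day, and fixed and stained after 5 days in one step with final 0.05% Triton X-100, 1% formaldehyde and 1 ug/ml Hoechst. Dosing was a single drug or a fixed anchor-drug dose plus five library-drug doses (not always all listed) in √10 steps, and values are medians of duplicate plates imaged at 4×.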

AZD6482 + Decitabine = compound: Cc1cc([C@@H](C)Nc2ccccc2C(=O)O)c2nc(N3CCOCC3)cc(=O)n2c1 [AZD6482] + Nc1ncn([C@H]2C[C@H](O)[C@@H](CO)O2)c(=O)n1 [Decitabine] (partner 2 µM)
Summary of the method: as §1

[1] = compound: COc1cc2nc(N3CCCN(C)CC3)nc(NC3CCN(Cc4ccccc4)CC3)c2cc1OC + CS(=O)(=O)CCNCc1ccc(-c2ccc3ncnc(Nc4ccc(OCc5cccc(F)c5)c(Cl)c4)c3c2)o1 [Lapatinib] (partner 2 µM)
Summary of the method: as §1

[2] = compound: COc1cc2nc(N3CCCN(C)CC3)nc(NC3CCN(Cc4ccccc4)CC3)c2cc1OC + O=C(c1cc(Cc2n[nH]c(=O)c3ccccc23)ccc1F)N1CCN(C(=O)C2CC2)CC1 [Olaparib] (partner 8 µM)
Summary of the method: as §1

Cell Line SW 1573 has a relative viability (AZD6482 + Tozasertib; first compound 0.08 µM) of 0.158, a relative viability (AZD6482 + Tozasertib; first compound 0.253 µM) of 0.17 and a relative viability (AZD6482 + Tozasertib; first compound 0.8 µM) of 0.184. The relative viability (AZD6482 + Tozasertib; first compound 2.53 µM) was 0.123, the relative viability (AZD6482 + Tozasertib; first compound 8 µM) was 0.143 and the relative viability (AZD6482 + Decitabine; first compound 0.08 µM) was 0.545. The relative viability (AZD6482 + Decitabine; first compound 0.253 µM) was 0.449, the relative viability (AZD6482 + Decitabine; first compound 0.8 µM) was 0.434 and the relative viability (AZD6482 + Decitabine; first compound 2.53 µM) was 0.332. It also gave a relative viability (AZD6482 + Decitabine; first compound 8 µM) of 0.454, a relative viability ([1]; first compound 0.2 µM) of 1.15 and a relative viability ([1]; first compound 0.6325 µM) of 1.07. For the same cell line, the relative viability ([1]; first compound 2 µM) was 1.26, the relative viability ([1]; first compound 6.325 µM) was 1.05 and the relative viability ([2]; first compound 0.2 µM) was 0.496. The relative viability ([2]; first compound 0.6325 µM) was 0.473, the relative viability ([2]; first compound 2 µM) was 0.487 and the relative viability ([2]; first compound 6.325 µM) was 0.125.
